Measured values published in patent US20230391774A1, “Novel Compounds” (AC Immune SA, priority 2020, published 2023).
Entries after “also recorded” stand apart in the source; their conditions may differ. Where a name gives a salt, the structure may show the parent alone.

Experiments:
[1] = system: misfolded Tau in SH-SY5Y cell line overexpressing full-length human Tau P301L; assay: Reduction of intracellular misfolded Tau; format: cell-based; settings: 20 nM, 72 hours, differentiated P301L SH-SY5Y cells, MC1 antibody, vs DMSO control
Procedure: The SH-SY5Y cell line overexpressing the full-length form of human Tau carrying the P301L mutation were cultured in complete medium DMEM-F12 4.5 g/L Glutamax (Invitrogen), 15% FBS (Biochrom), 1% Peni/Strep (Invitrogen) supplemented with 2.5 μg/ml of G418 (Sigma-Aldrich) selection antibiotic. For the in vitro differentiation from neuroblastoma cells to neurons, cells were plated in 24-well plates (Costar 3337) on glass coverslips coated with Poly-D-Lysine at a seeding density of 2.5×10^3 cells. P301L SH-SY5Y cells were differentiated for 1 week at 37° C. in culture medium in presence of 10 μM retinoic acid (RA; Sigma, R2625). Every 48-72 h media was changed and fresh retinoic acid was added. For the treatment with compound 1, were dispensed on the cells at concentrations between 1-20 nM for 72 hours, with changing compounds every 24 h. After the incubation with Compound 1, cells were pre-fixed with 2% PFA for 5 min followed by a 15 min fixation with 4% PFA. […] Permeabilized fixed cells were then incubated overnight in 10% NGS/0.25% Triton X-100 in PBS with monoclonal anti-mouse MC1 antibody detected misfolded Tau (provided by Prof. Peter Davies, Albert Einstein College of Medicine, New York, USA) and polyclonal anti-rabbit total Tau (Abcam; ab64193) both diluted 1:1000.

rTg4510 mice [2] = assay: In vivo efficacy: NFTs and neuroinflammation markers by immunohistochemistry; settings: 100 mg/kg, immunohistochemistry (data not shown)
Description: (§1) Double transgenic rTg4510 mice express the full-length human Tau carrying the P301L mutation (Tau4RON-P301L) under the control of the tet-inducible (or tetracycline-inducible system) CaMKII promoter (Ramsden et al., J. Neurosci., 2005·25(46):10637-10647). Single transgenic mice expressing only the tetracycline-controlled transactivator (tTA) were used as genotype controls. The study comprised 4 treatment groups (n=15 female for tTa group and n=33 female mice/group for the treatment) with the following group distribution (see Table 5). Mice were distributed over 5 cohorts and cages were composed with an average of 3 mice per cage. Compounds or vehicle control were administered bi-daily by gavage for 4 weeks starting at the age of 5 months.
After incubation of this mixture at room temperature for 1 hour, 25 μL of Streptavidin Donor beads (Perkin Elmer) at 25 μg/mL were added in the dark. Plates were analyzed after 30 minutes incubation using the EnSpire Alpha instrument and EnSpire Workstation version 3.00.

[3] = molecular target: T1, flTau aggregates (longest isoform of human Tau, 2N4R) (Homo sapiens, UniProt P10636); assay: Full-length Tau (flTau) disaggregation assay by Thioflavin T (ThT); format: biochemical; settings: ThT fluorescence; 60 nM flTau aggregates, 30 minutes at RT; read-out: flTau disaggregation EC50
T1 construct: 35 μM of recombinant full-length (fl) Tau in phosphate-buffered saline (PBS) were aggregated; purchased Biotechne; host or cells: bacteria
T1 sequence (P10636 1-441 isoform P10636-8): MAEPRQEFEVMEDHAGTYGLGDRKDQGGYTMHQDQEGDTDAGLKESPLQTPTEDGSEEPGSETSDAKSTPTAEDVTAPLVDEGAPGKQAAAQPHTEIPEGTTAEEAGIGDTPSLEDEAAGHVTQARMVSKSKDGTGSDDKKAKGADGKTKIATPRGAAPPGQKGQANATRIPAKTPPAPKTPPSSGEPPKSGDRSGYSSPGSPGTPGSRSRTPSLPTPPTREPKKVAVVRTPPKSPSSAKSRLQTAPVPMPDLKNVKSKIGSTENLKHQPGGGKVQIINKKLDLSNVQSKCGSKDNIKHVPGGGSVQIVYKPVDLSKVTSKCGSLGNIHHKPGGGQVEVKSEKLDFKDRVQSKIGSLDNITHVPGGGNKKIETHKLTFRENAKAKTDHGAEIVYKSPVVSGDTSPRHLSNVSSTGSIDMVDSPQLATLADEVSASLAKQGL
Method in brief: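 Recombinant 2N4R Tau (35 μM) pre-aggregated 72 h at 37 °C with 35 μM heparin and 10 mM DTT under shaking. Aggregates (60 nM final) incubated 30 min at RT in PBS with compound (20–0.0012 μM), then ThT added; fluorescence read at ex 440/em 485 nm and EC50 fitted to one-site model.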

rTg4510 mice [4] = assay: In vivo efficacy: aggregated Tau in cortical total brain homogenate (AlphaLISA); settings: 100 mg/kg bi-daily by gavage for 4 weeks
Description: In Vivo Efficacy of the Compounds of the Present Invention
as §1, with “months. […]” for “months.”
To prepare cortical total brain homogenates (Cx-TBH), frozen brains were resuspended in 9 volumes/weight of ice-cold homogenization buffer [25 mM Tris-HCl pH 7.4, 150 mM NaCl, 1 mM EDTA, 1 mM EGTA containing phosphatase inhibitors (30 mM NaF, 0.2 mM Na3VO4, 1 nM Okadaic acid, 1 mM PMSF, 5 mM Na4P2O7) and protease inhibitor cocktail (Complete™, Roche)] and homogenized in Eppendorf tubes with a VWR pellet mixer (47747-370). […] Aggregated Tau in total cortical homogenate was quantified using the following antibody pairs: HT7-Acceptor beads+biotin (BT)-HT7-donor beads. […]

[5] = molecular target: T2, Tau K18 fragment aggregates (amino acids 244 to 372 of human Tau441) (Homo sapiens, UniProt P10636); assay: Tau K18 disaggregation assay by ThT; format: biochemical; settings: ThT fluorescence; 2 μM K18 aggregates, 30 minutes at RT
T2 construct: encompassing amino acids 244 to 372 of the longest isoform (2N4R) of human Tau441; purchased Biotechne; host or cells: bacteria
T2 sequence (P10636 561-689): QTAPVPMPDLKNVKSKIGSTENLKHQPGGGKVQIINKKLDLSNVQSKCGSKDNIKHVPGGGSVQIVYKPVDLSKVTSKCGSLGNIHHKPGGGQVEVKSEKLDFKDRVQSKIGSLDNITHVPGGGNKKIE
Procedure: Tau K18 Disaggregation Assay by ThT
The Tau K18 fragment, encompassing amino acids 244 to 372 of the longest isoform (2N4R) of human Tau441, was expressed in bacteria and purified (Biotechne). For the K18 disaggregation assay by ThT, 35 μM of recombinant K18 in PBS were aggregated for 24 hours at 37° C. in presence of 25 μM of heparin (Sigma-Aldrich) and 10 mM of 1,4-Dithiothreito (DTT from Sigma-Aldrich) under shaking at 750 RPM. Compound 1 was dissolved in anhydrous dimethyl sulfoxide (DMSO, Sigma-Aldrich) to reach a concentration of 10 mM. K18 aggregates and serial dilutions of compounds were mixed together in PBS (volume 50 μL) to a final concentration of 2 μM of K18 aggregates and from 400 to 0.1 μM of Compound 1. The mixture was incubated for 30 minutes at room temperature (RT), then 40 μL of this mixture were transferred into a black 384-well plate assay (Perkin-Elmer) and mixed with 10 μL of 100 μM ThT in 250 mM glycine (both from Sigma-Aldrich) in PBS. Fluorescence (relative fluorescence units; RFU) was measured in monoplicate or duplicate on a Tecan reader (excitation: 440 nm; emission: 485 nm). Percentage of K18 disaggregation was then calculated and half maximal effective concentration (EC50) was determined using GraphPad Prism version 8 (GraphPad Software) assuming a one-binding site fitting model, see Table 3 and Table 4.

Row | Structure (SMILES) | EC50 [3] [nM] | EC50 [5] [nM] | Reduction of intracellular misfolded Tau [1] | NeuroFibrillary Tangles (NFTs) (rTg4510 mice [2]) | neuroinflammation marker CD68 (rTg4510 mice [2]) | neuroinflammation marker Iba1 (rTg4510 mice [2]) | aggregated Tau in Cortical Total brain homogenate (Cx-TBH) (rTg4510 mice [4]; 100 mg/kg) | aggregated Tau in Cortical Total brain homogenate (Cx-TBH) (rTg4510 mice [4]; listed as Compound 1, 100 mg/kg)
1 | c1ccc2c(C3CCN(c4ccc5oc(N6CCOCC6)nc5c4)CC3)n[nH]c2c1 [Example 1, 5-(4-(1H-indazol-3-yl)piperidin-1-yl)-2-morpholinobenzo[d]oxazole] | < 1000 | < 1000 | Reduction of intracellular misfolded Tau; also recorded: significantly different from DMSO control | significant decrease | significant decrease | significant decrease | significantly decreased | decreased of aggregated Tau
2 | Cn1cc(C#Cc2ccc3oc(N4CCOCC4)nc3c2)c2cc(F)cnc21 [Example 46, 5-((5-fluoro-1-methyl-1H-pyrrolo[2,3-b]pyridin-3-yl)ethynyl)-2-morpholinobenzo[d]oxazole] | 1000 to 10000 | 1000 to 10000 |  |  |  |  |  | 
3 | Cn1cc(C2CCN(c3ccc4oc(N5CCOCC5)nc4c3)C2)c2cc(F)cnc21 (centres unmarked) [Example 33, 5-(3-(5-fluoro-1-methyl-1H-pyrrolo[2,3-b]pyridin-3-yl)pyrrolidin-1-yl)-2-morpholinobenzo[d]oxazole] | 1000 to 10000 | 1000 to 10000 |  |  |  |  |  | 
4 | Cn1cc(C2CCN(c3cc4sc(N5CCOCC5)nc4cn3)CC2)c2cc(F)cnc21 [Example 110, 4-(6-(4-(5-fluoro-1-methyl-1H-pyrrolo[2,3-b]pyridin-3-yl)piperidin-1-yl)thiazolo[4,5-c]pyridin-2-yl)morpholine hydrochloride] | 1000 to 10000 | 10000 to 50000 |  |  |  |  |  | 

Second part, led by results:

Row | EC50 [3] [nM] | EC50 [5] [nM] | Structure (SMILES) | Reduction of intracellular misfolded Tau [1] | NeuroFibrillary Tangles (NFTs) (rTg4510 mice [2]) | neuroinflammation marker CD68 (rTg4510 mice [2]) | neuroinflammation marker Iba1 (rTg4510 mice [2]) | aggregated Tau in Cortical Total brain homogenate (Cx-TBH) (rTg4510 mice [4]; 100 mg/kg) | aggregated Tau in Cortical Total brain homogenate (Cx-TBH) (rTg4510 mice [4]; listed as Compound 1, 100 mg/kg)
5 | 1000 to 10000 | 1000 to 10000 | COc1ccc2c(C3CCN(c4ccc5oc(N6CCOCC6)nc5c4)CC3)c[nH]c2n1 [Example 104, 5-(4-(6-methoxy-1H-pyrrolo[2,3-b]pyridin-3-yl)piperidin-1-yl)-2-morpholinobenzo[d]oxazole] |  |  |  |  |  | 
6 | < 1000 | < 1000 | c1ccc2c(-c3cnn(-c4ccc5oc(N6CCOCC6)nc5c4)c3)c[nH]c2c1 [Example 9, 5-(4-(1H-indol-3-yl)-1H-pyrazol-1-yl)-2-morpholinobenzo[d]oxazole] |  |  |  |  |  | 
7 | 1000 to 10000 | 1000 to 10000 | c1ccc2c(C3CCN(c4ccc5oc(N6CCOCC6)nc5c4)C3)n[nH]c2c1 (centres unmarked) [Example 38, 5-(3-(1H-indazol-3-yl)pyrrolidin-1-yl)-2-morpholinobenzo[d]oxazole] |  |  |  |  |  | 
